Experimental data from ChEMBL document CHEMBL1201862, “PubChem BioAssay data set” (2004).
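Method: 48-hour compound exposure of cells in 96-well plates, five concentrations, linear interpolation of endpoints. At the GI50, growth is halved.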 The source made the active and inactive calls. No stated cut-off is given here; in the data, active = GI50 up to about 1.1 µM and inactive = higher.

Tests used:
Experiment in all cases: DTP human tumour cell line panel, 48 h
[1] = system: KM-20L2
[2] = system: CAKI-1
[3] = system: EKVX
[4] = system: HL-60
[5] = system: SF-268
[6] = system: HT-29
[7] = system: 786-0
[8] = system: SK-MEL-2
[9] = system: M14
[10] = system: A549
[11] = system: HOP-62
[12] = system: K562
[13] = system: SK-OV-3
[14] = system: SR
[15] = system: OVCAR-3
[16] = system: IGROV-1
[17] = system: SNB-75
[18] = system: LOX IMVI
[19] = system: ACHN
[20] = system: HCT-15
[21] = system: HCT-116
[22] = system: MOLT-4
[23] = system: COLO 205
[24] = system: TK-10
[25] = system: HOP-18
[26] = system: HCC 2998
[27] = system: KM12
[28] = system: SF-539
[29] = system: NCI-H460
[30] = system: UACC-257
[31] = system: RXF 393
[32] = system: A498
[33] = system: SW-620
[34] = system: UACC-62
[35] = system: NCI-H226
[36] = system: NCI-H522
[37] = system: OVCAR-4
[38] = system: OVCAR-8
[39] = system: U-251
[40] = system: DMS-114
[41] = system: SK-MEL-28
[42] = system: LXFL 529
[43] = system: RPMI-8226
[44] = system: CCRF-CEM
[45] = system: Malme-3M
[46] = system: DLD-1
[47] = system: M19-MEL
[48] = system: OVCAR-5
[49] = system: SNB-78
[50] = system: NCI-H23
[51] = system: SK-MEL-5
[52] = system: UO-31
[53] = system: SNB-19
[54] = system: SN12C
[55] = system: SF-295
[56] = system: DMS-273

Question: What does the source list for `CC1(C)COC(c2c(-c3ccccc3)noc2C[S+]([O-])c2ccccc2)=N1` (stereo unspecified)?
Answer: GI50 [1]: 46.3 µM (inactive); GI50 [2]: 61.5 µM (inactive); GI50 [3]: 96.6 µM (inactive); GI50 [4]: 23.9 µM (inactive); GI50 [5]: 19.9 µM (inactive); GI50 [6]: 38.5 µM (inactive); GI50 [7]: 76.6 µM (inactive); GI50 [8]: 24.5 µM (inactive); GI50 [9]: 48.9 µM (inactive); GI50 [10]: 46 µM (inactive); GI50 [11]: 31.4 µM (inactive); GI50 [12]: 40.9 µM (inactive); GI50 [13]: 72.3 µM (inactive); GI50 [14]: 29.1 µM (inactive); GI50 [15]: > 100 µM (inactive); GI50 [16]: 88.5 µM (inactive); GI50 [17]: 29.6 µM (inactive); GI50 [18]: 41 µM (inactive); GI50 [19]: 40 µM (inactive); GI50 [20]: 27.4 µM; GI50 [21]: 28.2 µM (inactive); GI50 [22]: 22.5 µM (inactive); GI50 [23]: 40.4 µM (inactive); GI50 [24]: > 100 µM (inactive); GI50 [25]: 24.9 µM (inactive); GI50 [26]: 32.3 µM (inactive); GI50 [27]: 36.1 µM (inactive); GI50 [28]: 59.6 µM (inactive); GI50 [29]: 28.3 µM (inactive); GI50 [30]: 52.1 µM (inactive); GI50 [31]: > 100 µM (inactive); GI50 [32]: 20.3 µM (inactive); GI50 [33]: > 100 µM (inactive); GI50 [34]: 20.7 µM (inactive); GI50 [35]: 30.3 µM (inactive); GI50 [36]: 36.1 µM (inactive); GI50 [37]: 62.8 µM (inactive); GI50 [38]: 37.3 µM (inactive); GI50 [39]: 32.5 µM (inactive); GI50 [40]: 21.9 µM (inactive); GI50 [41]: 33.1 µM (inactive); GI50 [42]: 30.2 µM (inactive); GI50 [43]: 22.1 µM (inactive); GI50 [44]: 29.2 µM (inactive); GI50 [45]: 46.1 µM (inactive); GI50 [46]: > 100 µM (inactive); GI50 [47]: 45.1 µM (inactive); GI50 [48]: > 100 µM (inactive); GI50 [49]: 7.48 µM (inactive); GI50 [50]: 32.3 µM (inactive); GI50 [51]: 38.3 µM (inactive); GI50 [52]: 29.2 µM (inactive); GI50 [53]: > 100 µM (inactive); GI50 [54]: 31.3 µM (inactive); GI50 [55]: 34.6 µM (inactive); GI50 [56]: 31.2 µM (inactive)
